Tests used:
Tsg101 UEV domain [1] = target: T1, Tsg101 UEV domain (Homo sapiens, UniProt Q99816); assay: Tsg101 melting curves with compounds, relative fluorescence (RFU) shift; format: binding; details: at 20 uM
T1 construct: Tsg101 UEV domain (residues 2-145) was encoded in a pET-28b vector; His6-TEV site (N, cleaved yes); made in house; host or cells: E. coli Rosetta 2 (DE3) pLysS
T1 sequence (Q99816 2-145): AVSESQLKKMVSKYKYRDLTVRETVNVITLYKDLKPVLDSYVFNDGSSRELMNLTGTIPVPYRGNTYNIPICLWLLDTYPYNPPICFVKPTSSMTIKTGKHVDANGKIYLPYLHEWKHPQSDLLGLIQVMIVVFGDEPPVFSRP
Description: FIG. 13B. TSG101 binding of prazole compounds. Melting curves of TSG101 with various prazole compounds assayed by relative fluorescence (RFU) shift. Two control compounds, K21 and N20, had no effect at 40 μM on the Tsg101 melting curve.
FIG. 14A-F. The ubiquitin E2 variant (UEV) domain of Tsg101 was purified by attaching it to an N-terminal His tag with a Tobacco Etch Virus nuclear-inclusion-a endopeptidase (TEV) cleavage site and isolating the tagged protein through two consecutive nickel columns. The first nickel column bound the Tsg101 with the His tag. Following cleavage of the His tag, Tsg101 flowed straight through the second column, removing any impurities from the cell lysate that also bound to the column in step 1, as well as the TEV protease enzyme.
F) Dose-dependence of Tsg101 normalized melting curves for N16 (top) and F15 (bottom). At same concentration, N16 shifts the melting curve to a greater extent to the left than F15. Specifically, at 20 uM, N16 caused a 12 degree Tm shift while F15 gave rise a 5 degree Tm shift. This difference correlated with the potency observed in the cell-based assay. The plot for N16 contains two control compounds, K21 and N20, which have no effect at 40 uM on the Tsg101 melting curve.

Tsg101 UEV domain [2] = target: T1, Tsg101 UEV domain; assay: NMR / LC-MS binding of compound to Tsg101 UEV domain
Description: N16 (20 mM solution, DMSO) was added to Tsg101 UEV domain in a 10:1 ratio (N16 excess).
For binding studies using NMR spectroscopy, the following complexes were made: Tsg101 UEV-N16, UEV-PTAP, UEV-Ub, UEV-N16-PTAP, and UEV-N16-Ub, all in Tsg101 NMR buffer: 20 mM potassium phosphate, 50 mM NaCl, pH 5.8, with UEV concentration of 200 μM.

EGFR = assay: EGF-stimulated EGFR degradation, Western analysis; format: cell-based; details: concentrations well above 50 JAM
Description: FIG. 20A-C. N16 inhibition is virus-specific. A) N16 IC50 for Hela and 293T cells. […] Values were calculated by measuring metabolic activity (WST-1 Assay, Roche Applied Science) after cells were grown for 24 hr in N16. Data points represent the mean of 2 assays, 3 time points each for each cell line. […] Values in the absence or presence of N16 (50 uM) were 12% and 13%, respectively). C) N16 effect on EGF-stimulated EFGR degradation. Cells maintained for 24 hr in media containing DMSO alone or DMSO and N16 were stimulated with EGF ligand for a 90 min period and then assessed for EGFR steady-state level by Western analysis. EGFR levels for unstimulated and stimulated sample pairs are shown. A) n=2; B) n=2; C) n=2.
We investigated the specificity of the inhibitory effect. F15 and N16 impaired Tsg101-co-localization with Gag on the plasma membrane (c.f, FIG. 19) and reduced release of the VLPs assembled by Gag (c.f, FIG. 15). […] Cell metabolic activity was not affected after exposure to N16 for 24 hr; it decreased by less than 10% after exposure to N16 for 48 hr (not shown). Tsg101 localization to the midbody of dividing cells requires its recruitment to that location by centrosomal protein of 55k (CEP55) which binds a site in the Tsg101 Pro-rich domain (aa 154-166) (Lee, H. H., et al. (2008)). […]

Plasma level in humans = format: in vivo, human; details: equivalent of the plasma level
Text: Targeting of the Gag-Tsg101 interaction for inhibition of HIV budding has been an active field over the last fifteen years, mostly focusing on interference with PTAP binding (Tavassoli, A. et al. (2008); Chen, H., et al. (2010); Kim, S. E. et al. (2011); Lu, J. et al. (2014)). Theoretically, a synthetic peptide that mimics the PTAP motif could compete for the PTAP binding pocket of Tsg101 in cells. […]; Liu, F. et al. (2008)). Although high-resolution structures for the highest affinity complexes have not yet been elucidated, docking studies indicate that these PTAP inhibitors bind to the hydrophobic surface of Tsg101 around residue T56 (Kim, S. E. et al. (2011)). […]. […] Indeed, the dose of N16 provided is 40 milligrams. Seven microgram/ml is achieved in human plasma (Hunt, R. H. et al. (2005)), a level that is equivalent to a 20 micromolar concentration of the drug. The lowest concentration that we achieved in tissue culture assays when N16 was provided under the optimal conditions described in the text (c.f FIG. 15) was 25-50 micromolar. The current availability of the F15/N16 compounds in diverse long-acting slow-release formulations is another feature adaptable to further refined development of the F15/N16 compounds that could address issues pertaining to drug regimen adherence. […]

| SMILES | Tm shift of Tsg101 melting curve (Tsg101 UEV domain [1]) [degree] | residue bound in Tsg101 UEV (NMR and fluorescence perturbances) (Tsg101 UEV domain [2]) | EGFR down-regulation function (EGFR) | plasma level, equivalent concentration (Plasma level in humans) [µM] | time to complete formation of N16 UEV complex (Tsg101 UEV domain [2]; 10:1 N16 excess, chemical shift perturbations) [h] |
| --- | --- | --- | --- | --- | --- |
| COc1ccc2nc([S@@+]([O-])Cc3ncc(C)c(OC)c3C)[nH]c2c1 [F15, esomeprazole] | 5 | bind to residue C73 |  |  |  |
| COc1ccc2[nH]c([S+]([O-])Cc3ncc(C)c(OC)c3C)nc2n1 (stereo not shown) [N16, tenatoprazole] | 12 | bind to residue C73 | unimpaired | 20 | 2 |

— patent US12059413B2, “Methods of inhibiting viruses using compositions targeting TSG101-ubiquitin interaction” (The Research Foundation for the State University of New York, priority 2016, dated 2024)
